Assay [1] concerns PLA2R-epitope specific memory B cells isolated from PMN patients. Put plainly: Elimination of PLA2R-epitope specific memory B cells: 24 h preincubation, then PLA2R-epitope-FITC staining. The conditions noted are these: preincubation 24 h; then PLA2R-epitope-FITC 1 h at 4° C.; FIG. 25. The format is cell-based, human. The method, then:
(§1) In some embodiments, the efficacy of an EDC may be tested in vitro using patient samples prior to administering the EDC to patients. For example, the efficacy of an EDC is tested on isolated B cells from patient peripheral blood mononuclear cells (PBMCs) (FIG. 25; Example 6, and FIG. 30; Example 9). An EDC comprising a fluorophore (e.g., FITC) is used detect the presence of autoantibody-producing B cells in patient samples (left panels in FIG. 25 (MN patient samples) and FIG. 30 (Pemphigus vulgaris patient samples) prior to exposing the samples to an EDC comprising a cytotoxic drug. The patient samples are then treated with an EDC comprising a cytotoxic drug (e.g., MMAE). The EDC comprising the fluorophore is then used determine the efficacy of the EDC comprising a cytotoxic drug of autoantibody-producing B cells in patient samples (middle panels in FIG. 25 (MN patient samples) and FIG. 30 (Pemphigus vulgaris patient samples)).
The efficacy of the PLA2R-epitope-MMAE on eliminating the PLA2R-epitope specific memory B cells isolated from PMN patients was assessed. MMAE is a potent cytotoxic agent that blocks tubulin polymerization causing cell death. MMAE has been used to develop an antibody-drug conjugate, Brentuximab vedotin (trade name Adcetris) for lymphoma treatment, and was approved by FDA in 2011. […]

Assay [2] concerns Dsg1 and Dsg3-epitope specific memory B cells isolated from mucocutaneous PV patients. As to the kind of experiment: Elimination of Dsg1 and Dsg3-epitope specific memory B cells: 24 h preincubation, then Dsg1 and Dsg3-epitope-FITC staining. The format is cell-based, human. The conditions noted are these: preincubation 24 h; then Dsg1 and Dsg3-epitope-FITC 1 h at 4° C.; FIG. 30. The method, then:
as §1
The efficacy of the Dsg1 and Dsg3 epitope conjugated to MMAE to eliminate Dsg1 and Dsg3-epitope specific memory B cells, respectively, isolated from the mucocutaneous PV patients was assessed. Total B cells isolated from patient peripheral blood were cultured overnight in RPMI medium and then split equally into two wells on a 12 well cell culture plate (2 ml/per well). […]

In assay [3] the test system is anti-PLA2R autoantibodies. Put plainly: Western blot of PLA2R-epitope proteins probed with patient serum containing anti-PLA2R autoantibodies. The format is binding, human. The conditions noted are these: SDS-PAGE under non-reducing condition. The text has this:
The construct was then expressed in the HEK293 cells and the epitope protein was purified using nickel and gel filtration columns followed with TEV cleavage to remove the His-tag. The protein was then coupled with a fluorescent agent (eg. FITC) or a cytotoxic reagent (eg. Monomethyl auristatin E (MMAE)).
In a separate experiment (FIG. 23; bottom right), equal amount of epitope, FITC conjugated epitope and MMAE conjugated epitope proteins were resolved on a SDS-PAGE under the non-reducing condition, transferred to a membrane, and probed by a patient serum containing anti-PLA2R autoantibodies. The unconjugated and the conjugated PLA2R-epitope proteins were resolved on a 4-20% SDS-PAGE under the non-reducing condition and probed with a patient serum containing anti-PLA2R autoantibodies (FIG. 23, bottom right).
The construct was then expressed in the HEK293 cells and the epitope protein was purified using nickel and gel filtration columns followed with TEV cleavage to remove the His-tag. The protein was then coupled with a fluorescent agent (eg. FITC) or a cytotoxic reagent (eg. Monomethyl auristatin E (MMAE)) (FIG. 23).
(In general: A western blot detects proteins with antibodies after separation by electrophoresis.)

Non-standard residues stand in square brackets, D forms with d. Residues, ends and D or L forms follow the SMILES beside them. *: point of attachment. Dolaproine = CO[C@@H]([C@@H]1CCCN1)[C@@H](C)C(=O)O; Dil = CC[C@H](C)[C@H](NC)[C@@H](CC(=O)O)OC; X1 = C[C@@H](N*)[C@@H](O)c1ccccc1; NMeV = CN[C@H](C(=O)O)C(C)C

For the molecule `CC[C@H](C)[C@@H]([C@@H](CC(=O)N1CCC[C@H]1[C@H](OC)[C@@H](C)C(=O)N[C@H](C)[C@@H](O)c1ccccc1)OC)N(C)C(=O)[C@@H](NC(=O)[C@@H](NC)C(C)C)C(C)C` [MMAE, Monomethyl auristatin E, reference compound] (H-[NMeV]V[Dil][Dolaproine]-X1), in assay [1], the “staining of B cells with PLA2R-epitope-FITC after preincubation (elimination of PLA2R-epitope specific memory B cells)” value is given as “a number of B cells being stained”. Also, the “staining of B cells with Dsg1 and Dsg3-epitope-FITC after preincubation (elimination of Dsg1 and Dsg3-epitope specific memory B cells)” value in assay [2] is reported as “a number of B cells being stained”.

Take “PLA2R-epitope: PLA2R CysR, FnII and CTLD1 domains with free cysteine engineered into the C-terminal tail, expressed in HEK293 cells, about 37 kDa”: the “reaction/binding with anti-PLA2R autoantibodies (Western blot)” value is “strongly reacted” in assay [3], “strongly reacted” in assay [3] (listed as modified PLA2R-epitope) and “strongly” in assay [3] (listed as unconjugated PLA2R-epitope).

The record behind these values is US11266717B2, “Diagnosis, prevention, and/or treatment of autoimmune diseases” (priority 2016, dated 2022).
